Assay results published in patent publication USRE45612E1, “Corrosion inhibitor composition applicable for aluminum and steel protection and procedure” (MD FIFTH WARD PROPERTIES, INC., priority 2001, dated 2015).

Assays:
[1] = Salt spray exposure (ASTM B-117) of scribed aircraft primers containing the inhibitor pigment; conditions: 2000 hours salt spray, scribe area
Procedure: The test was performed in a typical two component aircraft primer formulation, specifically recommended for aluminum protection. […] By visual examination of their physical state at the end of the test period, the coatings' corrosion inhibitor performance, considered directly proportional to the tested pigment components' corrosion inhibitive activity, was qualified. The scribed area was especially examined and the absence or presence of corrosion products, respectively, was interpreted as display of, or absence of, the respective corrosion inhibitor pigment's “throw power”. It will be apparent that the “throw power” is the discriminative characteristic of effective corrosion inhibitor pigments.

[2] = Solubility in water of the pigment; type: physicochemical
[3] = pH of saturated extract / leachate of the pigment; type: physicochemical
[4] = Salt spray exposure (ASTM B-117) of scribed coil primers, service life of coating; conditions: on galvanized steel, relative to Sr-doped amorphous silica
Procedure: Steel Co.), at 0.6-0.7 mil dry film thickness, aged for at least 2 (two) days at room temperature, scribed and subsequently subjected to salt spray exposure (according to ASTM B-117). The scribes were applied in the typical cross form, and, in order to cut through the protective galvanic zinc coating from the area of the scribes, at appropriate depth. During salt spray exposure, the coatings' physical state was assessed periodically by visual examination. […] Service life of a coating is considered directly proportional to the related pigments' or additives' corrosion inhibitor performance, which is conveniently qualified by Ei, the Inhibitor Efficiency Index, defined as: […]

In the case of `Sc1nnc(S)s1` [DMTD, 2,5-dimercapto-1,3,4 thiadiazole], the “"Throw Power" Observed” value [1] is reported as “displayed throw power”.
With `[S-]c1nnc(S)s1.[S-]c1nnc(S)s1.[Zn+2]` [Example 1, Zn(DMTD)2] the “solubility in water, at 24° C.” value [2] was 400 µg/mL and the “pH (saturated extract)” value [3] was 4.5-5.0.
With `C1CCC(NC2CCCCC2)CC1.S=c1[nH]c(=S)[nH]c(=S)[nH]1` [Example 7, Di-cyclohexyl mono-ammonium salt of trithiocyanuric acid] the “extension of service life of coil coatings over Sr-doped amorphous silica” value [4] was 200%.
